Assay results reported in patent publication US7256268B1, “Human high affinity choline transporter” (University of Florida Research Foundation, priority 2000, dated 2007).

What was measured:
[1] = biological target: T1, human HACT (Homo sapiens, UniProt Q9GZV3); test: transporter assay for high affinity choline uptake (tritiated choline chloride) in transfected or infected cells; type: cell-based; conditions: 10 nM of Hemicholinium-3; cells expressing recombinant human HACT (FIG. 1: SF9 cells), 27° C., 30 min
T1 construct: expressed in transfected cells; host or cells: 293, HELA and SF9 cells (pcDNA, AAV proviral and baculoviral vectors)
T1 sequence (Q9GZV3 1-580): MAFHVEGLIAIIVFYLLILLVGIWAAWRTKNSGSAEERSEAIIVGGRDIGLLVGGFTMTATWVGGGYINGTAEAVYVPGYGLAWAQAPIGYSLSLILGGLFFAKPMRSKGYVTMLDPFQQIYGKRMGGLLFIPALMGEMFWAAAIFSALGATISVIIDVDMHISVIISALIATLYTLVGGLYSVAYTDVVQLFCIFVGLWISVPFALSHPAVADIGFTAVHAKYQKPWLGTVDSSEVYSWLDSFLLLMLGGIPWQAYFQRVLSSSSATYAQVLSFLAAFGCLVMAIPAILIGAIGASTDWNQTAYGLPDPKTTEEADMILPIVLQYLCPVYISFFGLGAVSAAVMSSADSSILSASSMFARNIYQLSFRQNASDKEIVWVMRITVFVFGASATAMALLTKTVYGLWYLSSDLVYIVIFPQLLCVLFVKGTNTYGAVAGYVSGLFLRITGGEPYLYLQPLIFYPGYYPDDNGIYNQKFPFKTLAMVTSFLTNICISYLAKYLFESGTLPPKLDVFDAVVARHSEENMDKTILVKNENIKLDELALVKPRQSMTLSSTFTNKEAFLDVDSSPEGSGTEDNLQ
Procedure: A transporter assay for high affinity choline uptake was carried out using 293, HELA, and SF9 cells that had been transfected or infected with expression vectors (several eukaryotic expression vectors including pcDNA, AAV proviral vector, and Baculoviral vectors were used) either with or without a cDNA encoding human HACT. Briefly, 2×10^5 cells were incubated with tritiated choline chloride and various amounts of Hemicholinium-3 in 500 microliter media (20 mM HEPES, pH 7.4, 140 mM NaCl, 4 mM KCl, 1 mM MgCl2, 1 mM CaCl2) at 27° C. for 30 min in each transporter assay. The cells were then pelleted and washed three times before they were solublized in 1N NaOH and the tritium content determined by liquid scintillation counting. […] Furthermore, the HACT activity was sensitive to 10 nM of Hemicholinium-3, which is characteristic of high affinity choline transporter. See e.g. Okuda et al. Nat. Neurosci. 3:120-5 (2000).

[2] = system: low affinity choline transporter, LACT; conditions: synaptosome preparations; cited from earlier work

In the case of `C[N+]1(C)CCOC(O)(c2ccc(-c3ccc(C4(O)C[N+](C)(C)CCO4)cc3)cc2)C1.[Br-].[Br-]` (centres unmarked) [hemicholinium-3], the “sensitivity of HACT activity to Hemicholinium-3” value [1] is given as “sensitive” and the “sensitivity of the low affinity uptake system to hemicholinium-3” value [2] is given as “insensitive”.
